Experimental data taken from patent publication US20240352145A1, “EFFICACY OF ANTI-TROP-2-SN-38 ANTIBODY DRUG CONJUGATES FOR THERAPY OF TUMORS RELAPSED/REFRACTORY TO CHECKPOINT INHIBITORS” (Immunomedics, Inc., priority 2016, published 2024).

Tests used:
BxPC-3 = test: ADCC activity of hRS7-ADC conjugates; format: cell-based, human; conditions: 33.3 nM; PBMC effector to target ratio 100:1
Source text: PBMCs were purified from blood purchased from the Blood Center of New Jersey. A Trop-2-positive human pancreatic adenocarcinoma cell line (BxPC-3) was used as the target cell line with an effector to target ratio of 100:1.

[1] = mouse, in vivo
Source text: Pharmacokinetics—Naive female NCr nude (nu/nu) mice, 8-10 weeks old, were purchased from Taconic Farms (Germantown, NY). […] ELISA was utilized to determine serum concentrations of total hRS7 IgG by competing for the binding to an anti-hRS7 IgG idiotype antibody with a horseradish peroxidase conjugate of hRS7. […] Pharmacokinetic (PK) parameters were computed by noncompartmental analysis using Phoenix WinNonlin software (version 6.3; Pharsight Corp., Mountainview, CA).

rhTrop-2/TACSTD2 = target: T1, rhTrop-2/TACSTD2 (Homo sapiens, UniProt P09758); test: Surface plasmon resonance (BIACORE), Trop-2; format: binding; conditions: for Kd: low-density Trop-2 chip, three independent runs, read-out: binding affinity (KD)
T1 construct: purchased Sino Biological, Inc
T1 sequence (P09758 27-323): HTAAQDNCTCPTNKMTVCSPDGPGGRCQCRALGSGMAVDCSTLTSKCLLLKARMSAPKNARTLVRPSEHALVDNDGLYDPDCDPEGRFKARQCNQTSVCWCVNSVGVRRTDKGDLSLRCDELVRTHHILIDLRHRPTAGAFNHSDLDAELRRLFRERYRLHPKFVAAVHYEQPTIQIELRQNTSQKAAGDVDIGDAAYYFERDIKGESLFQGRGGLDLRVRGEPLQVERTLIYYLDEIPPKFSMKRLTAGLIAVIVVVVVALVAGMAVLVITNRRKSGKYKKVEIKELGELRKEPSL
Source text: (§1) Surface Plasmon Resonance Binding (BIACORE)—Briefly, rhTrop-2/TACSTD2 (Sino Biological, Inc.) or recombinant human neonatal receptor (FcRn), produced as described (Wang et al., 2011, Drug Metab Dispos 39:1469-77), was immobilized with an amine coupling kit (GE Healthcare; Cat. No. BR-1000-50) on a CM5 sensor chip (GE Healthcare; Cat. #BR-1000-12) following manufacturer's instructions for a low-density chip. […] Each set would make up a separate run on the BIACORE (BIACORE-X; Biacore Inc., Piscataway, NJ) and data were analyzed using BIAevaluation Software (Biacore Inc., v4.1). Analysis was performed with a 1:1 (Langmuir) Binding Model and Fit, using all five concentration points for each sample run to determine the best fit (lowest χ^2 value). The KDvalue was calculated using the formula KD=kd1/ka1, where kd1 is the dissociation rate-constant and ka1 is the association-rate constant.

Capan-1 = test: Combination 90Y-hPAM4 RAIT + ADC, Capan-1 xenograft; format: in vivo, mouse
Source text: Objective responses occurred in most animals, but they were more robust in both of the combination groups as compared to each agent given alone. […] These studies provide the first evidence that combined radioimmunotherapy and ADC enhances efficacy at safe doses.

CDC activity = format: cell-based
Trop-2 = target: T2, Trop-2 (Homo sapiens, UniProt P09758); test: In vitro cell binding, multiple cell lines; set-up: endogenous in cells; host or cells: human cancer cell lines (ATCC)
T2 sequence (P09758 27-323): T1 sequence (P09758 27-323)
Method: In Vitro Cell Binding—LumiGLO Chemiluminescent Substrate System (KPL, Gaithersberg, MD) was used to detect antibody binding to cells. Briefly, cells were plated into a 96 black-well, flat-clear-bottom plate overnight. Antibodies were serially diluted 1:2 and added in triplicate, yielding a concentration range from 0.03 to 66.7 nM. After incubating for 1 h at 4° C., the media was removed and the cells washed with fresh cold media followed by the addition of a 1:20,000 dilution of goat-antihuman horseradish peroxidase-conjugated secondary antibody (Jackson Immunoresearch, West Grove, PA) for 1 h at 4° C. The plates were again washed before the addition of the LumiGLO reagent. Plates were read for luminescence using an Envision plate reader (Perkin Elmer, Boston MA). Data were analyzed by non-linear regression to determine the equilibrium dissociation constant (KD). Statistical comparisons of KD-values were made with Prism GraphPad Software (v4.03) (Advanced Graphics Software, Inc.; Encinitas, CA) using an F-Test on the best-fit curves for the data. Significance was set at P<0.05.

[2] = target: T3, recombinant human neonatal receptor (FcRn) (Homo sapiens, UniProt P55899); test: Surface plasmon resonance (BIACORE), FcRn; format: binding; conditions: low-density FcRn chip, three independent runs
T3 construct: made in house
T3 sequence (P55899 24-297 limits assumed): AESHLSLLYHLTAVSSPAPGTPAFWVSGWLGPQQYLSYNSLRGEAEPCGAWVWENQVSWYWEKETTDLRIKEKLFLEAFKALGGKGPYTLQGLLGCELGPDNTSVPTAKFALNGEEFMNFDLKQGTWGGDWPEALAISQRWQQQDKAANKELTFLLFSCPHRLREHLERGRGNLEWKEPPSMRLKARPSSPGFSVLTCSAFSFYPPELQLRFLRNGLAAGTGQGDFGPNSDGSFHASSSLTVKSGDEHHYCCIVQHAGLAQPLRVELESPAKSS
T3 sequence (P61769 21-119 partner): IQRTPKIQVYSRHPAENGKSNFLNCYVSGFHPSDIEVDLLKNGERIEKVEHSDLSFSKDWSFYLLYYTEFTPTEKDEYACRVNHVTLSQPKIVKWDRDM
Source text: as §1

[3] = tested on: SK-MES-1 human squamous cell lung tumors; test: SK-MES-1 xenograft therapy; format: in vivo; conditions: for tumor volume (TV): 0.4 mg/kg, 28 days
Method: (§2) NCr female athymic nude (nu/nu) mice, 4 to 8 weeks old, and male Swiss-Webster mice, 10 weeks old, were purchased from Taconic Farms. […] Tumor volume (TV) was determined by measurements in 2 dimensions using calipers, with volumes defined as: L×w^2/2, where L is the longest dimension of the tumor and w is the shortest. […] This dosing frequency reflected a consideration of the conjugate's serum half-life in vitro, to allow a more continuous exposure to the ADC.
(§3) Statistics—Growth curves are shown as percent change in initial TV over time. Statistical analysis of tumor growth was based on area under the curve (AUC). Profiles of individual tumor growth were obtained through linear-curve modeling. An f-test was employed to determine equality of variance between groups before statistical analysis of growth curves. A 2-tailed t-test was used to assess statistical significance between the various treatment groups and controls, except for the saline control, where a 1-tailed t-test was used (significance at P≤0.05). Statistical comparisons of AUC were performed only up to the time that the first animal within a group was euthanized due to progression.

p21^Waf1/Cip1 and p53 [4] = test: Signaling events (p21Waf1/Cip1, p53) in Calu-3; format: cell-based, human
Source text: (§4) Our initial studies examined the expression of 2 proteins involved in early signaling events (p21^Waf1/Cip1 and p53) and 1 late apoptotic event [cleavage of poly-ADP-ribose polymerase (PARP)] in vitro (not shown).

MDA-MB-468 = test: ADCC LDH-release, MDA-MB-468; format: cell-based, human; conditions: for specific lysis (ADCC): MDA-MB-468, 33.3 nM, E:T 50:1, 4 h
Method: The next day, peripheral blood mononuclear effector cells (PBMCs) were freshly isolated from a donor and added to assigned wells on the reaction plate at an E:T ratio of 50:1. Acquisition of human PBMCs was done under the approval of the New England Institutional Review Board (Newton, MA). […] One set of wells received ADCC assay medium alone for background control and another set of wells received cells alone plus TritonX100 for maximum cells lysis control. The plate was incubated for 4 h at 37° C. After 4 h, target cell lysis was assessed by a homogenous fluorometric LDH release assay (Cyto Tox-One Homogenous Membrane Integrity Assay; Promega, Cat. G7891).
Data were analyzed by Microsoft Excel. Percent specific lysis was calculated as follows:
where: • Experimental: effector+target cells+antibody • Effector+Target Control: effector+target cells • Max. Lysis: target cells+Triton-X100 • Target Control: target cells only

COLO 205 tumors = test: COLO 205 xenograft therapy; format: in vivo
Method: as §2, §3

p21^Waf1/Cip1 and p53 [5] = test: Signaling events (p21Waf1/Cip1, p53) in BxPC-3; format: cell-based, human
Source text: as §4

| Substance | specific lysis (ADCC) (BxPC-3) | alpha half-life of hRS7 IgG ([1]; iv, 200 ug) | beta half-life of hRS7 IgG ([1]; iv, 200 ug) [h] | Kd (rhTrop-2/TACSTD2) [µM] | anti-tumor activity of unconjugated antibodies (Capan-1; given alone) | CDC activity (CDC activity) | KD (Trop-2) | Kd [2] [µM] | tumor volume (TV) [3] [cm^3] | exposure time at which p53 upregulation is evident (p21^Waf1/Cip1 and p53 [4]) [h] | specific lysis (ADCC) (MDA-MB-468) [%] | tumor volume (TV) (COLO 205 tumors; 0.4 mg/kg, q4dx8, 28-day treatment period) [cm^3] | exposure time at which p53 upregulation is evident (p21^Waf1/Cip1 and p53 [5]) [h] | MRT of carrier hRS7 antibody [1] [h] | half-life of intact conjugate ([1]; iv, 200 ug) [h] | improvement in KD vs naked hRS7 (rhTrop-2/TACSTD2; BIACORE) [fold] | tumor-free mice after 20 weeks (Capan-1; 75 μCi 90Y-hPAM4 level, ADC alone, or their combination, n=10) | tolerability, body weight loss ([3]; in all murine studies) | loss of effector function (ADCC) (MDA-MB-468; three different cell lines) | tumor growth vs untreated and hA20-CL2A-SN-38 (COLO 205 tumors; 0.4 mg/kg SN-38 twice weekly x 4 weeks) |
| --- | --- | --- | --- | --- | --- | --- | --- | --- | --- | --- | --- | --- | --- | --- | --- | --- | --- | --- | --- | --- |
| hRS7 IgG | 8.5% | approximately 3 h | ~200 | 0.00051 ± 4e-05 | Neither unconjugated hPAM4 nor hRS7 antibodies had anti-tumor activity | no CDC activity | sub-nanomolar range | 0.0924 ± 0.0057 | 1.30±1.08 | 48 | 29.8±2.6 | 1.77±0.93 | 48 |  |  |  |  |  |  |  |
| IMMU-132 | no difference between hRS7-NEM and sacituzumab govitecan | approximately 3 h | ~200 | 0.00026 ± 0.00014 |  | no CDC activity | sub-nanomolar range | 0.192 ± 0.0476 | 0.36±0.25 | ≤ 24 | 8.6±2.6 |  | ≤ 24 | ~300 | 11 | 2 | 1 of 10 | well tolerated in terms of body weight loss | 60-70% | significantly inhibited tumor growth |
